Experimental data from ChEMBL document CHEMBL5390321, “Transaminases Provide Key Chiral Building Blocks for the Synthesis of Selective M1/M4 Agonists” (ACS Med Chem Lett, 2023).

Legend:
Assay type in all cases: functional, cell-based
[1] = molecular target: Muscarinic acetylcholine receptor M3 (Homo sapiens, UniProt P20309); assay: Activation of human cloned muscarinic M3 receptor expressed in CHO-K1 cells by Calcium flux assay relative to control
[2] = molecular target: T1, Muscarinic acetylcholine receptor M5 (Homo sapiens, UniProt P08912); assay: Activation of human cloned muscarinic M5 receptor expressed in CHO-K1 cells by Calcium flux assay relative to control
T1 sequence (P08912 whole entry): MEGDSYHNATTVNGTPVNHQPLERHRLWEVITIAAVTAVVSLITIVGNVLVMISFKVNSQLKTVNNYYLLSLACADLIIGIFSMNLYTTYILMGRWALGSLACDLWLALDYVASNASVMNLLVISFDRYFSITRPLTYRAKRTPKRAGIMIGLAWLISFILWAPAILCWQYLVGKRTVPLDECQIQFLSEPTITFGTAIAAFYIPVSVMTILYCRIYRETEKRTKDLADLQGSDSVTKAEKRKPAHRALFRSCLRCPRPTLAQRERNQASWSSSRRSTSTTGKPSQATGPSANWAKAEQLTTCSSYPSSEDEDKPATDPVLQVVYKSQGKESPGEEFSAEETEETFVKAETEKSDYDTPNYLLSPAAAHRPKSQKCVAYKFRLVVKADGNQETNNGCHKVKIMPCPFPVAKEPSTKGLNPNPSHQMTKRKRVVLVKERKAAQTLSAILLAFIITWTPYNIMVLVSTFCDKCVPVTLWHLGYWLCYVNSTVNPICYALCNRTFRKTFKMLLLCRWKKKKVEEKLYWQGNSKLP

[3] = molecular target: T2, Muscarinic acetylcholine receptor M4 (Homo sapiens, UniProt P08173); assay: Activation of human cloned muscarinic M4 receptor expressed in CHO-K1 cells by Calcium flux assay relative to control
T2 sequence (P08173 whole entry): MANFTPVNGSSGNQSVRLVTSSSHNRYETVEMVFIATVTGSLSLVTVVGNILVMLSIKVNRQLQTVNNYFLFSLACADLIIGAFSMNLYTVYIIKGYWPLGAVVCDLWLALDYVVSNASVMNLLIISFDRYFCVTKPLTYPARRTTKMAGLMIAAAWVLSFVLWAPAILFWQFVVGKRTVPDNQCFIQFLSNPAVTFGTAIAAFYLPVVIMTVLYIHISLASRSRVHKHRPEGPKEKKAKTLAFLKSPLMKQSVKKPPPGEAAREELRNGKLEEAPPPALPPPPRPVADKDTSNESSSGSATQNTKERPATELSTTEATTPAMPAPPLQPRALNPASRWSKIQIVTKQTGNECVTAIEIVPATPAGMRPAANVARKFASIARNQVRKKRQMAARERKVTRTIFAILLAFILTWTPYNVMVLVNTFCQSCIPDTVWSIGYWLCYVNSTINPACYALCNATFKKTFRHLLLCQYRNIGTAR

[4] = molecular target: T3, Muscarinic acetylcholine receptor M2 (Homo sapiens, UniProt P08172); assay: Activation of human cloned muscarinic M2 receptor expressed in CHO-K1 cells by Calcium flux assay
T3 sequence (P08172 whole entry): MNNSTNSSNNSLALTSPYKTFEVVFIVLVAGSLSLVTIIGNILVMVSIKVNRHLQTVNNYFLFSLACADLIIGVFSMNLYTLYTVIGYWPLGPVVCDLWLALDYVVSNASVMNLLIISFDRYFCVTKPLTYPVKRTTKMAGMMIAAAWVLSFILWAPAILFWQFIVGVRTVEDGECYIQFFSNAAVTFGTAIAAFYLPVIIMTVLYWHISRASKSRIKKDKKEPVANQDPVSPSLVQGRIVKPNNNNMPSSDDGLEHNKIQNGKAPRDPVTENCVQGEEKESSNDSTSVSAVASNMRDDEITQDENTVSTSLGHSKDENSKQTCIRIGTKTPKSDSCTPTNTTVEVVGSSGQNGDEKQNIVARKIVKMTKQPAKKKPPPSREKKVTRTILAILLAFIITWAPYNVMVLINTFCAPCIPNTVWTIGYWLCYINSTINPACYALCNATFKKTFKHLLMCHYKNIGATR

Chain of Muscarinic acetylcholine receptor M3 (P20309 whole entry): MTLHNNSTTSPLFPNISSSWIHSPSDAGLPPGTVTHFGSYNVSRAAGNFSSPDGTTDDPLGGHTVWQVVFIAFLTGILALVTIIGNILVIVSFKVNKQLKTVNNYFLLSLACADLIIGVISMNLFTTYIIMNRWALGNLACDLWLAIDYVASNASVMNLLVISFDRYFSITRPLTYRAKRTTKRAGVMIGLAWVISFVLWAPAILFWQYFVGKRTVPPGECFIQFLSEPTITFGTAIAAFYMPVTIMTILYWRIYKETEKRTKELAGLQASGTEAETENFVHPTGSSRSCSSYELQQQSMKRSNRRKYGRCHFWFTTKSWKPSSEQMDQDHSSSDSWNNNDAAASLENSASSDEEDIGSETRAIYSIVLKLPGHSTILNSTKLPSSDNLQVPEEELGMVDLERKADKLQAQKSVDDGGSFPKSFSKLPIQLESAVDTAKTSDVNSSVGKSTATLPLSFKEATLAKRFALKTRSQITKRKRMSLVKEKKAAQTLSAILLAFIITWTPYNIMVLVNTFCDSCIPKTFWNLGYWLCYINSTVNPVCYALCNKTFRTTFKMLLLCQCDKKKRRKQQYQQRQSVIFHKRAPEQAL

EC50 [1] [µM] | EC50 [2] [µM] | EC50 [3] [µM] | EC50 [4] [µM] | SMILES
> 25 | > 25 |  |  | COc1ccccc1C1CCN([C@@H]2COC3(C2)CN(C(=O)C2COC2)C3)CC1
> 25 |  |  |  | CCOc1ccccc1C1CCN([C@@H]2CCC3(C2)CN(C(C)=O)C3)CC1
> 25 | > 25 | 0.0093 |  | COc1cc(F)ccc1C1CCN([C@@H]2CCC3(C2)CN(C(=O)C2COC2)C3)CC1
0.11 |  |  |  | CCCCCCOc1nsnc1C1=CCCN(C)C1 [XANOMELINE]

The next lines start with the compound.

SMILES | EC50 [1] [µM] | EC50 [2] [µM] | EC50 [3] [µM] | EC50 [4] [µM]
COc1ccc(F)cc1C1CCN([C@@H]2CCC3(C2)CN(C(=O)C2COC2)C3)CC1 | > 25 | 0.14 | 0.0017 | 
COc1cc(F)ccc1C1CCN([C@@H]2COC3(C2)CN(C(=O)C2COC2)C3)CC1 | > 25 | > 25 |  | 
CCOc1ccccc1C1CCN([C@@H]2CCC3(C2)CN(C(=O)C2COC2)C3)CC1 | > 25 | > 25 | 0.0065 | 0.21
COc1ccc(F)cc1C1CCN([C@@H]2COC3(C2)CN(C(=O)C2COC2)C3)CC1 | > 25 | > 25 |  | 
CCOc1ccccc1C1CCN([C@@H]2CCC3(C2)CN(C(=O)CC)C3)CC1 | > 25 | > 25 |  | 
COc1ccccc1C1CCN(C2CCC3(C2)CN(C(=O)C2COC2)C3)CC1 (single isomer, unassigned) | > 25 |  |  | 
